The record followed here is ChEMBL document CHEMBL1201862, “PubChem BioAssay data set” (2004).

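Cells were grown in 96-well plates and exposed to each compound for 48 hours at five concentrations; endpoints were interpolated linearly between bracketing concentrations, or set to the highest concentration if not reached. GI50 = concentration required for 50% inhibition of growth.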 The source made the active and inactive calls. No stated cut-off is given here; in the data, active = GI50 up to about 1.1 µM and inactive = higher. Numbered stars: 1 amine (or outer) side, 2 acyl side, 3 side chain; on linkers, the order of the positions; unused ones are H or OH. Bridge positions count the residues as written; N and C are the ends. Square brackets hold non-standard residues; d marks the D form. Peptide text beside a SMILES is read from it. I, II: the chains in the order shown. Actinocin(9to1) = Cc1c2oc3c(C)ccc(C(=O)[*:1])c3nc-2c(C(=O)[*:2])c(N)c1=O; NMeH = CN[CH](Cc1c[nH]cn1)C(=O)O; Sar = CNCC(=O)O

Test systems include A549; CAKI-1; CCRF-CEM; EKVX; HCT-116; HOP-92; M14; MDA-N; MOLT-4; Malme-3M; NCI-H522; NCI/ADR-RES; OVCAR-3; OVCAR-4; SF-268; SF-539; SN12C; SNB-75; UACC-62.
Holding throughout (experiment): inhibition of tumour cell growth, NCI panel, 48 h

Take `Cn1c2cc(Cl)ccc2c2ccc3c(c21)C(=O)C=CC3=O`: the GI50 in the experiment on A549 was > 100 µM (inactive); in the experiment with CAKI-1, 13.5 µM (inactive); in the experiment with CCRF-CEM, 3.68 µM (inactive); in the experiment with EKVX, > 71.4 µM (inactive); in the experiment on HCT-116 it was 20.8 µM (inactive); with HOP-92 it was 19 µM (inactive). Also, the GI50 with M14 was 23.7 µM (inactive); in the experiment with MDA-N, 26.1 µM (inactive); in the experiment with MOLT-4, 2.75 µM (inactive); in the experiment on Malme-3M, 16.5 µM (inactive); in the experiment with NCI-H522, 8.13 µM (inactive); in the experiment with NCI/ADR-RES it was > 52.4 µM (inactive). Moreover, the GI50 with OVCAR-3 is 11.7 µM (inactive); in the experiment with OVCAR-4 it was 20.7 µM (inactive); in the experiment on SF-268 it was 38.6 µM (inactive); with SF-539, > 55 µM (inactive); with SN12C, 14 µM (inactive); in the experiment on SNB-75, > 71 µM (inactive). For the same compound, in the experiment with UACC-62, the GI50 is 21.5 µM (inactive).
`CN(C)CCCCN1c2ccccc2Sc2cc(N=[N+]=[N-])ccc21`: the GI50 in the experiment with A549 was 1.79 µM (inactive); in the experiment with CAKI-1, 1.84 µM (inactive); in the experiment on CCRF-CEM, 2.01 µM (inactive); with EKVX, 4.15 µM (inactive); with HCT-116, 1.78 µM (inactive); with HOP-92, 2.74 µM (inactive). For the same compound, the GI50 with M14 was 1.69 µM (inactive); in the experiment on MDA-N, 1.72 µM (inactive); with MOLT-4, 1.93 µM (inactive); with Malme-3M, 1.82 µM (inactive); in the experiment with NCI-H522, 1.6 µM (inactive); in the experiment with NCI/ADR-RES, 1.75 µM (inactive). Further, the GI50 is 1.89 µM (inactive) with OVCAR-3; 2.4 µM (inactive) in the experiment with OVCAR-4; 2.38 µM (inactive) in the experiment on SF-268; 1.96 µM (inactive) with SF-539; 3.48 µM (inactive) in the experiment with SN12C; 1.8 µM (inactive) in the experiment on SNB-75. Further, in the experiment with UACC-62, the GI50 was 1.85 µM (inactive).
As to `O=c1[nH]c2ccccc2c2oc(-c3ccccc3)nc12`, the GI50 with A549 was 47.6 µM (inactive); in the experiment with CAKI-1, 18.9 µM (inactive); with CCRF-CEM it was 18.4 µM (inactive); in the experiment with EKVX, > 100 µM (inactive); in the experiment on HCT-116, 24 µM (inactive); in the experiment on HOP-92, 28.5 µM (inactive). Moreover, the GI50 with M14 is > 100 µM (inactive); with MDA-N, 20.2 µM (inactive); in the experiment with MOLT-4, 26.6 µM (inactive); in the experiment with Malme-3M, > 100 µM (inactive); in the experiment on NCI-H522, 61.5 µM (inactive); in the experiment on NCI/ADR-RES, > 100 µM (inactive). Besides, the GI50 in the experiment on OVCAR-3 is > 100 µM (inactive); with OVCAR-4 it was 60.7 µM (inactive); in the experiment on SF-268 it was 21.3 µM (inactive); in the experiment on SF-539 it was 16.7 µM (inactive); with SN12C it was 16.5 µM (inactive); in the experiment on SNB-75 it was 20.2 µM (inactive). For the same compound, the GI50 in the experiment with UACC-62 was 88.3 µM (inactive).
As for `Cc1c2oc3c(C)ccc(C(=O)NC4C(=O)NC(C(C)C)C(=O)N5CCCC5C(=O)N(C)CC(=O)N(C)C(Cc5cnc[nH]5)C(=O)OC4C)c3nc-2c(C(=O)NC2C(=O)NC(C(C)C)C(=O)N3CCCC3C(=O)N(C)CC(=O)N(C)C(Cc3cnc[nH]3)C(=O)OC2C)c(N)c1=O` (stereo not given) (I: TVP[Sar][NMeH] / II: TVP[Sar][NMeH]; ester I:1-I:C, II:1-II:C; linker I:N-II:N via Actinocin(9to1); configuration not given here), the GI50 is 61.9 µM (inactive) with A549; 38.1 µM (inactive) with CAKI-1; 59 µM (inactive) in the experiment with CCRF-CEM; > 100 µM (inactive) in the experiment on EKVX; 40.6 µM (inactive) with HOP-92; 68.5 µM (inactive) in the experiment on M14. Besides, the GI50 with MDA-N was 25.2 µM (inactive); in the experiment on MOLT-4 it was 37.3 µM (inactive); in the experiment on Malme-3M, 55.7 µM (inactive); with NCI-H522, 16.8 µM (inactive); with NCI/ADR-RES, > 100 µM (inactive); in the experiment with OVCAR-3, > 100 µM (inactive). The GI50 in the experiment on OVCAR-4 is > 100 µM (inactive); in the experiment with SF-268 it was 67.6 µM (inactive); in the experiment on SF-539, 28.8 µM (inactive); in the experiment on SN12C it was 57 µM (inactive); in the experiment on SNB-75 it was 66.8 µM (inactive); in the experiment with UACC-62 it was 30.3 µM (inactive).
For the compound `O=C1c2ccccc2C(=O)N1[C@@H](Cc1ccccc1)C(=O)n1cccc1CO`, the GI50 with A549, in the experiment on CAKI-1, with CCRF-CEM, in the experiment with EKVX, with HCT-116 and in the experiment with HOP-92 was > 100 µM (inactive) each time. In addition, the GI50 in the experiment on M14, in the experiment with MDA-N, in the experiment on MOLT-4, in the experiment with Malme-3M, in the experiment with NCI-H522 and in the experiment with NCI/ADR-RES was > 100 µM (inactive) each time. For the same compound, the GI50 with OVCAR-3, in the experiment with OVCAR-4, with SF-268, with SF-539, in the experiment on SN12C and in the experiment with SNB-75 was > 100 µM (inactive) each time. Besides, the GI50 with UACC-62 was > 100 µM (inactive).
In the case of `COc1cc2ncnc(NS(=O)(=O)c3cc4ccccc4s3)c2cc1OC`, the GI50 in the experiment with A549 was > 100 µM (inactive); with CAKI-1 it was > 100 µM (inactive); in the experiment with CCRF-CEM, > 100 µM (inactive); in the experiment on EKVX, 75 µM (inactive); with HCT-116 it was > 100 µM (inactive); in the experiment on HOP-92, 34 µM (inactive). Further, the GI50 in the experiment on M14 was > 100 µM (inactive); in the experiment on MDA-N, > 100 µM (inactive); in the experiment with MOLT-4, > 100 µM (inactive); with Malme-3M it was > 100 µM (inactive); with NCI-H522 it was 28.2 µM (inactive); in the experiment on NCI/ADR-RES it was > 100 µM (inactive). Moreover, the GI50 in the experiment with OVCAR-3 is > 100 µM (inactive); in the experiment with OVCAR-4 it was 92.7 µM (inactive); in the experiment with SF-268, > 100 µM (inactive); in the experiment with SF-539 it was > 100 µM (inactive); with SN12C, 70.5 µM (inactive); in the experiment on SNB-75 it was 47.8 µM (inactive). Also, the GI50 in the experiment on UACC-62 was 89.1 µM (inactive).
As for `Cc1csc2c(=O)n(C3OC(CO)C(O)C3O)c(=O)[nH]c12` (stereo not given), the GI50 with A549, in the experiment with CAKI-1, with CCRF-CEM, in the experiment on EKVX, with HCT-116 and in the experiment with HOP-92 was > 100 µM (inactive) throughout. For the same compound, the GI50 with M14, in the experiment on MDA-N, in the experiment with MOLT-4, in the experiment with Malme-3M, in the experiment with NCI-H522 and in the experiment with NCI/ADR-RES was > 100 µM (inactive) throughout. The GI50 with OVCAR-3, in the experiment on OVCAR-4, in the experiment with SF-268, in the experiment on SF-539, in the experiment with SN12C and with SNB-75 was > 100 µM (inactive) throughout.
As to `O=C1N=C(SC(SC2=NC(=O)C3(NN2)c2ccccc2-c2ccccc23)=C(SC2=NC(=O)C3(NN2)c2ccccc2-c2ccccc23)SC2=NC(=O)C3(NN2)c2ccccc2-c2ccccc23)NNC12c1ccccc1-c1ccccc12`, the GI50 was 6.65 µM (inactive) in the experiment with A549; > 10 µM (inactive) with CAKI-1; 5.21 µM (inactive) in the experiment on CCRF-CEM; 2.59 µM (inactive) in the experiment on EKVX; 5.55 µM (inactive) in the experiment with HCT-116; > 10 µM (inactive) with HOP-92. The GI50 with M14 was 8.71 µM (inactive); in the experiment with MDA-N, 5.36 µM (inactive); in the experiment on MOLT-4, 0.437 µM (active); with Malme-3M, > 10 µM (inactive); with NCI-H522 it was 4.54 µM (inactive); in the experiment with NCI/ADR-RES, 3.66 µM (inactive). Besides, the GI50 in the experiment on OVCAR-4 was 8.07 µM (inactive); in the experiment with SF-268, > 10 µM (inactive); in the experiment on SF-539 it was > 10 µM (inactive); with SN12C, 6.5 µM (inactive); with SNB-75, 7.96 µM (inactive); in the experiment on UACC-62, 6.53 µM (inactive).
With `Cc1ccc(/C=C2\CN(C)CC3=C2N=C(S)NC3c2ccc(C)cc2)cc1` (stereo not given), the GI50 in the experiment on A549 was 37.2 µM (inactive); in the experiment on CAKI-1, > 100 µM (inactive); in the experiment with CCRF-CEM it was 30.1 µM (inactive); in the experiment with EKVX it was 41.8 µM (inactive); in the experiment on HCT-116, 21.8 µM (inactive); with HOP-92, 18.2 µM (inactive). For the same compound, the GI50 in the experiment on M14 is 27.3 µM (inactive); in the experiment with MDA-N it was 13.5 µM (inactive); in the experiment on Malme-3M, 47.3 µM (inactive); with NCI-H522 it was 39.5 µM (inactive); in the experiment on NCI/ADR-RES it was 23.8 µM (inactive); with OVCAR-3, 22.1 µM (inactive). In addition, the GI50 in the experiment on OVCAR-4 was 14 µM (inactive); in the experiment with SF-268, 44.4 µM (inactive); in the experiment on SF-539, 39 µM (inactive); in the experiment on SN12C it was 32.7 µM (inactive); in the experiment on SNB-75, 10.2 µM (inactive); in the experiment with UACC-62, 36 µM (inactive).
`CCOC(=O)C1=CC(C)(C(=O)OCC)Nc2c(nc(N)[nH]c2=O)N1` (stereo not given): the GI50 in the experiment on A549, with CAKI-1, in the experiment on CCRF-CEM, in the experiment with EKVX, with HCT-116 and in the experiment with HOP-92 was > 10 µM (inactive) in each case. For the same compound, the GI50 with M14, in the experiment with MDA-N, in the experiment on MOLT-4, with Malme-3M, with NCI-H522 and with NCI/ADR-RES was > 10 µM (inactive) each time. Also, the GI50 with OVCAR-3, in the experiment with OVCAR-4, in the experiment with SF-268, in the experiment on SF-539, in the experiment with SN12C and with SNB-75 was > 10 µM (inactive) in each case.
